Conditions: a range is the spread between reports

melting point [°C] | Structure (SMILES)
60 to 62 | c1ccc(SSc2ccccc2)cc1
155 | NC(=O)c1cccc(Br)c1
69 to 69.4 | CCCCCCCCCCCCCCCCCCC(=O)O
158 to 160 | c1ccc2cc3c(ccc4ccccc43)cc2c1
151 to 153 | NS(=O)(=O)c1ccccc1
174 to 175 | Cc1ccnc(-c2cc(C)ccn2)c1
-132 | C=C(CC)CC
-27.3 to -27 | CC(=O)CC(=O)OC(C)C
108 to 113 | NC(=O)c1ccccc1N
43 to 46 | O=[N+]([O-])c1cccc(Cl)c1
52 to 54.3 | COC(=O)C(=O)OC
82 to 83 | O=[N+]([O-])c1c(O)cccc1O
19 to 21 | CCCCCCCCCCC(C)=O
82 to 86 | CN(C)c1cccc(O)c1
23 to 26 | Cc1ccc(Cl)cc1N
176 to 177 | NC(=O)c1ccccc1[N+](=O)[O-]
46 to 48 | CCC(=O)c1ccc(Br)cc1
32 to 33 | COC(=O)c1cccc(Br)c1
242 to 243 | CN(C)c1ccc(C(=O)O)cc1
71 to 73 | OCc1cccc(O)c1
20.5 to 24 | CCCCCCCCCCCCCC=O
172 to 173 | CC(CCC(=O)O)(c1ccc(O)cc1)c1ccc(O)cc1
158 to 160 | COc1ccc2c(c1)c(CC(=O)O)c(C)n2C(=O)c1ccc(Cl)cc1
41 to 42 | BrCCCCOc1ccccc1

melting point [°C] | Structure (SMILES)
-98 to -97.8 | CCCCSC
270 to 271 | O=C1OC(=O)c2cccc3cccc1c23
223 to 228 | NC(=O)c1ccc(-c2ccccc2)cc1
33 to 35 | CCCCCCCCCCCCCCCCCC(=O)OCC
33 to 34 | CC(=O)c1ccc(Cl)cc1Cl
184 to 187 | O=C(O)c1ccc([N+](=O)[O-])o1
63 to 68 | O=Cc1cc(Cl)cc(Cl)c1
-3 to -1.2 | CC(=O)C(C)=O
181 to 182 | O=Cc1cc(Br)c(O)c(Br)c1
132 to 134 | Oc1cccc(O)c1O
66 to 69.8 | COc1ccccc1CC#N
-130 | CCCC=C(C)C
-4 to 0 | CCCCCCCCCCC=O
121 to 125 | CC(=O)Oc1ccc(OC(C)=O)cc1
73 to 77.5 | O=C1C=CC(=O)C2C3C=CC(C3)C12 (stereo not given)
-8 to -5 | CCCC(=O)O
101 to 102 | Nc1ccccc1N
196 to 200 | NCCC(=O)O
97 | c1ccc2n[nH]nc2c1
51.5 to 52 | Cc1ccc(O)c(C(C)(C)C)c1
97.5 to 98 | OCc1c[nH]c2ccccc12
105 to 106 | O=C(NCc1ccccc1)c1ccccc1
37 to 38 | COc1ccccc1C=O
144 to 146 | O=C(CCC(=O)c1ccccc1)c1ccccc1

melting point [°C] | Structure (SMILES)
204 | COc1cc(NS(=O)(=O)c2ccc(N)cc2)nc(OC)n1
53.8 to 58 | CCCCCCCCCCCCCCCCCO
130 to 131 | O=C(O)c1c(F)ccc(F)c1F
60 to 61 | O=C(c1ccccc1)c1ccccc1C(F)(F)F
59 to 60.5 | CN(C)c1cccc([N+](=O)[O-])c1
190 | c1ccc(-c2cc3ccccc3[nH]2)cc1
20 | CC(C)(C)OC(=O)CCC(Cl)(Cl)Cl
18 to 19 | CCCCCCCCCCCCCC(=O)OC
116 to 118 | NC(=O)c1ccccc1F
67 to 69.5 | C[Si](c1ccccc1)(c1ccccc1)c1ccccc1
146 to 150 | O=C(O)c1ccccc1Br
21 to 22 | CCCCCCCCCCCCCCCCC
136 | CCC(C)(C)C(=O)OC1CC(C)C=C2C=CC(C)C(CCC3CC(O)CC(=O)O3)C21 (stereo not given)
36 to 38 | Clc1ccc2ccccc2n1
55 to 57 | CCCCCCCCCCCCCCCCCC(C)=O
68.5 to 72 | CCCCOC(=O)c1ccc(O)cc1
157 to 159 | Cc1ccc(S(=O)(=O)c2ccc(C)cc2)cc1
100 to 101 | O=C(c1ccccc1)c1ccc(-c2ccccc2)cc1
40.3 to 44 | CCC(C)(CO)CO
221 to 225 | COc1ccc(-c2cc(=O)c3c(O)c(OC)c(O)cc3o2)cc1
81 to 83.5 | O=C(Cl)c1ccc(C(=O)Cl)cc1
93 to 94 | c1ccc(C(c2ccccc2)c2ccccc2)cc1
4.58 to 5 | Cc1ccc(Cc2ccccc2)cc1
112 to 115 | CCOc1ccc2ccccc2c1C=O

melting point [°C] | Structure (SMILES)
303 to 307 | CCCC(N)C(=O)O (racemic)
-90 to -89.5 | CCOC(=O)C(C)(C)C
-86 to -85.6 | CCCSSCCC
235 to 239 | Nc1ccc2cc3ccccc3cc2c1
184 to 185 | COc1ccc(C(=O)O)cc1
67 to 71 | O=C(Oc1ccccc1)c1ccccc1
39 to 40 | O=C(O)CCCCBr
7.7 to 8 | COCC(=O)O
36 to 37.8 | Cc1c(Cl)cccc1[N+](=O)[O-]
-63 to -62.6 | CCc1ccc(Cl)cc1
79.5 to 80 | O=C1CCC(c2ccccc2)CC1
99 to 100 | N#Cc1ccc(Cl)c([N+](=O)[O-])c1
-13 to -12.7 | N#Cc1ccccc1
114 to 115 | OC(CCN1CCCCC1)(c1ccccc1)C1CCCCC1 (stereo not given)
196 | CN(C)CCC=C1c2ccccc2CCc2ccccc21
38 to 38.5 | COc1ccc(C(C)=O)cc1
255 to 259 | CC12CCC3c4ccc(O)cc4CCC3C1CCC2=O (stereo not given)
53 to 54.5 | Nc1ccc(C2CCCCC2)cc1
114 to 115 | COc1cc(CO)ccc1O
93.5 to 94 | Cc1cc(C)c(C)c(O)c1
156 to 158 | Cc1ccc(NC(=O)c2ccccc2)cc1
150 to 153 | COc1ccc2cc(OC)ccc2c1
225 to 228 | O=C(O)c1ccc(-c2ccccc2)cc1

The remaining lines, values behind:

Structure (SMILES) | melting point [°C]
N#Cc1c(F)c(F)c(F)c(C#N)c1F | 77 to 79
O=C1C(O)=C(Cl)C(=O)C(O)=C1Cl | 283 to 284
CC(C)C(C)(C)C(C)(C)C | -36.4 to -36
CC(C)CC(C)(C)C | -107
O=S(=O)(Cl)c1ccccc1 | 14.5 to 15
O=Cc1cc2c(cc1[N+](=O)[O-])OCO2 | 93.5 to 95
O=C(Cl)c1ccccc1Br | 10 to 11
O=C1CCC(=O)N1 | 124 to 126
CCc1ccc2ccccc2c1 | -7.45 to -7.35
CCCCC(CC)COP(=O)(OCC(CC)CCCC)OCC(CC)CCCC (stereo not given) | -74 to -70
Nc1cccc([N+](=O)[O-])c1 | 112 to 114
O=C(O)c1ccc([N+](=O)[O-])c([N+](=O)[O-])c1 | 165 to 166
S=C1NCCS1 | 105 to 106
O=S1(=O)CC=CC1 | 64.5 to 65
Cc1csc(N)n1 | 44 to 45.5
CC(C)CCCC(C)C1CCC2C3CC(O)C4(O)CC(O)CCC4(C)C3CCC12C (stereo not given) | 237 to 238
COc1cc(C#N)cc(OC)c1OC | 93 to 94
Nc1cc(Cl)c(Cl)cc1Cl | 94 to 96.5
CC(=O)Cl | -113 to -112
CC(C)=CC(=O)O | 67 to 69.5
CC1(C)COC(=O)C1O (stereo not given) | 90 to 92
Cc1c(C)c(C)c(CCl)c(C)c1C | 82 to 83
Cn1c(=O)n(C)c(=O)n(C)c1=O | 176
O=C(O)c1ccc([N+](=O)[O-])cc1[N+](=O)[O-] | 181 to 182

Structure (SMILES) | melting point [°C]
CC1=CCCCC1 | -120
O=C1C=C(Cl)C(=O)C=C1Cl | 160 to 162
FC(F)(F)c1ccc(Cl)cc1 | -36 to -33
O=[N+]([O-])c1cccc(O)c1 | 94 to 98
c1ccc2c(c1)Oc1ccccc1O2 | 122
Cc1ccccc1C | -25.2 to -25
CC1=C(C)CCCC1 | -84.1 to -84
CCO | -114
c1ccc2c(c1)cc1ccc3cccc4ccc2c1c34 | 176 to 179
C1OCOCO1 | 60.2 to 61
C=CC=C | -113 to -109
CC(C)(C)CC(C)(C)C | -67 to -66.5
Oc1ccccc1I | 38.5 to 43
OC1CCCC1 | -20 to -16.2
c1ccc(P(c2ccccc2)c2ccccc2)cc1 | 80 to 80.5
NC(=S)c1c(Cl)cccc1Cl | 151 to 152
Nc1c(Cl)cc(Cl)cc1Br | 80 to 83.5
CC(C)C1(C)N=C(c2ncccc2C(=O)O)NC1=O (stereo not given) | 171 to 172
CCC(C)(O)C#CC(C)(O)CC (stereo not given) | 53 to 54
ClCC(Cl)CCl | -15 to -14
Clc1cc(Cl)c(Cl)cc1Cl | 139 to 140
N#CCc1ccccc1 | -24 to -23.8
CCC(S)CC | -111
Cc1cncnc1 | 30 to 32

Structure (SMILES) | melting point [°C]
C=CCC(C)CC (stereo not given) | -142 to -141
CCCCCCCCCCCCCCCCCCCCCCCCCC | 56.4 to 57
Clc1ccc(Cl)cc1 | 52.1 to 55
FC(Cl)(Cl)Cl | -111 to -110
CC(C)O | -90 to -88
C#CC(C)C | -90 to -89.7
N#Cc1ccncc1 | 76 to 79
CCCCC(CC)COC(=O)c1ccccc1C(=O)OCC(CC)CCCC (stereo not given) | -55 to -50
OCC(Br)(Br)Br | 79 to 81
C[Si](C)(C)[Si](C)(C)C | 12 to 13.5
O=C(O)CC(S)C(=O)O (stereo not given) | 149 to 152
BrCC(Br)Br | -29.3 to -29
CC(Br)C(C)(Br)Br (stereo not given) | 1.8 to 2
NC1CCCC1 | -85.7 to -82.7
O=c1[nH]c(=O)c2nccnc2[nH]1 | 348
CCC1CCC1 | -143
Brc1ccccc1-c1ccccc1 | 1 to 2
CCCCCCCCCCCCCCCCCCCCCCCCCCCCCCCCCCCCCCCC | 81 to 82
N#Cc1ccccc1Cl | 45 to 46.3
C=CC(=O)OCCCC | -64.6 to -64
NC(=O)C(F)(F)F | 72.5 to 73
Nc1ccncc1 | 158 to 159

Reference: a melting point compilation (Tetko et al.)
